Measurements reported in PubChem BioAssay (NCI).
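Values below derive from 48-hour exposures of cells grown in 96-well plates, with endpoints linearly interpolated between the two concentrations bracketing the appropriate inhibition level. Definition used: TGI = concentration required for complete inhibition of growth.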

Columns and labels:
Experiment in all cases: DTP human tumour cell line panel, 48 h
[1] = system: DMS 114 small cell lung
[2] = system: SK-MEL-28 melanoma
[3] = system: SNB-78 CNS
[4] = system: KM12 colon
[5] = system: OVCAR-3 ovarian
[6] = system: M14 melanoma
[7] = system: OVCAR-5 ovarian
[8] = system: HT29 colon
[9] = system: 786-0 renal
[10] = system: HCC-2998 colon
[11] = system: MOLT-4 leukemia
[12] = system: SK-MEL-5 melanoma
[13] = system: OVCAR-8 ovarian
[14] = system: SR leukemia
[15] = system: RXF 393 renal
[16] = system: HOP-62 NSCLC
[17] = system: RPMI-8226 leukemia
[18] = system: HCT-15 colon
[19] = system: HOP-18 NSCLC
[20] = system: SF-295 CNS
[21] = system: EKVX NSCLC
[22] = system: M19-MEL melanoma
[23] = system: OVCAR-4 ovarian
[24] = system: TK-10 renal
[25] = system: COLO 205 colon
[26] = system: HL-60(TB) leukemia
[27] = system: UO-31 renal
[28] = system: MALME-3M melanoma
[29] = system: CAKI-1 renal
[30] = system: HCT-116 colon
[31] = system: DLD-1 colon
[32] = system: SNB-19 CNS
[33] = system: SF-539 CNS
[34] = system: IGROV1 ovarian
[35] = system: A549 NSCLC
[36] = system: SK-OV-3 ovarian
[37] = system: NCI-H23 lung
[38] = system: UACC-62 melanoma
[39] = system: U251 CNS
[40] = system: K-562 leukemia
[41] = system: SK-MEL-2 melanoma
[42] = system: UACC-257 melanoma
[43] = system: SF-268 CNS
[44] = system: NCI-H460 lung
[45] = system: LXFL 529 NSCLC
[46] = system: SNB-75 CNS
[47] = system: HOP-92 NSCLC
[48] = system: SW-620 colon
[49] = system: SN12C renal
[50] = system: CCRF-CEM leukemia
[51] = system: A498 renal
[52] = system: LOX IMVI melanoma
[53] = system: DMS 273 small cell lung
[54] = system: NCI-H522 lung
[55] = system: ACHN renal
[56] = system: KM20L2 colon
[57] = system: NCI-H226 lung

## CC(O[Si](C)(C)C)C1C=CC(C)n2c(=O)n(-c3ccccc3)c(=O)n21 (stereo not drawn)
[1]
  TGI: > 100 µM
[2]
  TGI: > 100 µM
[3]
  TGI: > 100 µM
[4]
  TGI: > 100 µM
[5]
  TGI: > 100 µM
[6]
  TGI: > 100 µM
[7]
  TGI: > 100 µM
[8]
  TGI: > 100 µM
[9]
  TGI: > 100 µM
[10]
  TGI: > 100 µM
[11]
  TGI: > 100 µM
[12]
  TGI: > 100 µM
[13]
  TGI: > 100 µM
[14]
  TGI: > 100 µM
[15]
  TGI: > 100 µM
[16]
  TGI: > 100 µM
[17]
  TGI: > 100 µM
[18]
  TGI: > 100 µM
[19]
  TGI: > 100 µM
[20]
  TGI: > 100 µM
[21]
  TGI: > 100 µM
[22]
  TGI: > 100 µM
[23]
  TGI: > 100 µM
[24]
  TGI: > 100 µM
[25]
  TGI: > 100 µM
[26]
  TGI: > 100 µM
[27]
  TGI: > 100 µM
[28]
  TGI: > 100 µM
[29]
  TGI: > 100 µM
[30]
  TGI: > 100 µM
[31]
  TGI: > 100 µM
[32]
  TGI: > 100 µM
[33]
  TGI: > 100 µM
[34]
  TGI: > 100 µM
[35]
  TGI: > 100 µM
[36]
  TGI: > 100 µM
[37]
  TGI: > 100 µM
[38]
  TGI: > 100 µM
[39]
  TGI: > 100 µM
[40]
  TGI: > 100 µM
[41]
  TGI: > 100 µM

## Cc1cc2c(c(N)c1C)C(=O)c1ccccc1C2=O
[1]
  TGI: > 100 µM
[3]
  TGI: > 100 µM
[4]
  TGI: > 100 µM
[42]
  TGI: > 100 µM
[6]
  TGI: > 100 µM
[7]
  TGI: > 100 µM
[43]
  TGI: > 100 µM
[44]
  TGI: > 100 µM
[8]
  TGI: > 100 µM
[45]
  TGI: > 100 µM
[9]
  TGI: 62.7 µM
[46]
  TGI: 39.8 µM
[10]
  TGI: > 100 µM
[11]
  TGI: > 100 µM
[47]
  TGI: 58.9 µM
[12]
  TGI: > 100 µM
[13]
  TGI: > 100 µM
[48]
  TGI: > 100 µM
[14]
  TGI: > 100 µM
[15]
  TGI: > 100 µM
[16]
  TGI: 40 µM
[17]
  TGI: > 100 µM
[18]
  TGI: > 100 µM
[49]
  TGI: > 100 µM
[19]
  TGI: 56 µM
[20]
  TGI: 86.6 µM
[50]
  TGI: > 100 µM
[22]
  TGI: > 100 µM
[51]
  TGI: 79 µM
[23]
  TGI: 41.4 µM
[24]
  TGI: 93.1 µM
[25]
  TGI: > 100 µM
[26]
  TGI: > 100 µM
[27]
  TGI: 33.1 µM
[28]
  TGI: > 100 µM
[29]
  TGI: 55.3 µM
[52]
  TGI: > 100 µM
[53]
  TGI: > 100 µM
[30]
  TGI: 50.4 µM
[31]
  TGI: > 100 µM
[32]
  TGI: > 100 µM
[33]
  TGI: 31.5 µM
[54]
  TGI: > 100 µM
[34]
  TGI: > 100 µM
[35]
  TGI: > 100 µM
[36]
  TGI: 49.2 µM
[55]
  TGI: > 100 µM
[38]
  TGI: 35.5 µM
[39]
  TGI: 96.6 µM
[40]
  TGI: > 100 µM
[41]
  TGI: > 100 µM
[56]
  TGI: > 100 µM

## Cc1ccc(C(=O)NC(C)(C)C)cc1N=NN(C)C
[2]
  TGI: > 100 µM
[3]
  TGI: > 100 µM
[4]
  TGI: > 100 µM
[5]
  TGI: > 100 µM
[42]
  TGI: > 100 µM
[6]
  TGI: > 100 µM
[43]
  TGI: > 100 µM
[44]
  TGI: > 100 µM
[8]
  TGI: > 100 µM
[45]
  TGI: > 100 µM
[9]
  TGI: > 100 µM
[10]
  TGI: > 100 µM
[47]
  TGI: > 100 µM
[12]
  TGI: > 100 µM
[13]
  TGI: > 100 µM
[48]
  TGI: > 100 µM
[16]
  TGI: > 100 µM
[18]
  TGI: > 100 µM
[49]
  TGI: > 100 µM
[20]
  TGI: > 100 µM
[21]
  TGI: > 100 µM
[23]
  TGI: > 100 µM
[24]
  TGI: > 100 µM
[27]
  TGI: > 100 µM
[29]
  TGI: > 100 µM
[52]
  TGI: > 100 µM
[53]
  TGI: > 100 µM
[30]
  TGI: > 100 µM
[31]
  TGI: > 100 µM
[32]
  TGI: > 100 µM
[33]
  TGI: > 100 µM
[54]
  TGI: > 100 µM
[34]
  TGI: > 100 µM
[35]
  TGI: > 100 µM
[37]
  TGI: > 100 µM
[55]
  TGI: > 100 µM
[38]
  TGI: > 100 µM
[39]
  TGI: > 100 µM
[41]
  TGI: > 100 µM
[56]
  TGI: > 100 µM

## CN(C)CCC1(C2=CCCC2)CC/C(=C\c2ccccc2)C1=O (stereo not drawn)
[1]
  TGI: 33.2 µM
[2]
  TGI: 38 µM
[3]
  TGI: 46.2 µM
[4]
  TGI: 28.8 µM
[5]
  TGI: 28.5 µM
[42]
  TGI: 28.5 µM
[6]
  TGI: 30.2 µM
[7]
  TGI: 35.7 µM
[43]
  TGI: 42.2 µM
[44]
  TGI: 31.3 µM
[8]
  TGI: 34.4 µM
[45]
  TGI: 29.6 µM
[9]
  TGI: 27.8 µM
[46]
  TGI: 35.9 µM
[10]
  TGI: 29.2 µM
[11]
  TGI: 39 µM
[47]
  TGI: 45.6 µM
[12]
  TGI: 27.8 µM
[13]
  TGI: 29.6 µM
[48]
  TGI: 32.2 µM
[14]
  TGI: > 100 µM
[15]
  TGI: 26.6 µM
[16]
  TGI: 30 µM
[17]
  TGI: 35.1 µM
[18]
  TGI: 26.6 µM
[49]
  TGI: 31.1 µM
[19]
  TGI: 29.2 µM
[57]
  TGI: 31.1 µM
[20]
  TGI: 33.6 µM
[50]
  TGI: 50.3 µM
[21]
  TGI: 25.7 µM
[22]
  TGI: 28.5 µM
[51]
  TGI: 29.1 µM
[23]
  TGI: 31 µM
[24]
  TGI: 29 µM
[25]
  TGI: 28.3 µM
[26]
  TGI: 29.9 µM
[27]
  TGI: 30.7 µM
[28]
  TGI: 31.7 µM
[29]
  TGI: 26.3 µM
[52]
  TGI: 31.3 µM
[53]
  TGI: 29 µM
[30]
  TGI: 35.4 µM
[31]
  TGI: 37.5 µM
[32]
  TGI: 28.3 µM
[33]
  TGI: 30.5 µM
[54]
  TGI: 27.4 µM
[34]
  TGI: 29.8 µM
[35]
  TGI: 41.9 µM
[37]
  TGI: 46.9 µM
[55]
  TGI: 28.6 µM
[38]
  TGI: 26.6 µM
[39]
  TGI: 30.3 µM
[40]
  TGI: 46.5 µM
[41]
  TGI: 31 µM
[56]
  TGI: 26 µM

## CCOC(=O)NC(=O)c1cn(CCSCCOC(=O)NCCCCCCNC(=O)OCCSCCn2cc(C(=O)NC(=O)OCC)c(=O)[nH]c2=O)c(=O)[nH]c1=O
[1]
  TGI: > 100 µM
[2]
  TGI: > 100 µM
[3]
  TGI: > 100 µM
[5]
  TGI: > 100 µM
[42]
  TGI: > 100 µM
[6]
  TGI: > 100 µM
[44]
  TGI: > 100 µM
[8]
  TGI: > 100 µM
[46]
  TGI: > 100 µM
[47]
  TGI: > 100 µM
[12]
  TGI: > 100 µM
[13]
  TGI: > 100 µM
[48]
  TGI: > 100 µM
[15]
  TGI: > 100 µM
[16]
  TGI: > 100 µM
[18]
  TGI: > 100 µM
[49]
  TGI: > 100 µM
[19]
  TGI: > 100 µM
[20]
  TGI: > 100 µM
[50]
  TGI: > 100 µM
[21]
  TGI: > 100 µM
[22]
  TGI: > 100 µM
[23]
  TGI: > 100 µM
[24]
  TGI: > 100 µM
[25]
  TGI: > 100 µM
[26]
  TGI: > 100 µM
[27]
  TGI: > 100 µM
[28]
  TGI: > 100 µM
[29]
  TGI: > 100 µM
[52]
  TGI: > 100 µM
[53]
  TGI: > 100 µM
[30]
  TGI: > 100 µM
[31]
  TGI: > 100 µM
[32]
  TGI: > 100 µM
[33]
  TGI: > 100 µM
[34]
  TGI: > 100 µM
[35]
  TGI: > 100 µM
[36]
  TGI: > 100 µM
[37]
  TGI: > 100 µM
[55]
  TGI: > 100 µM
[38]
  TGI: > 100 µM
[39]
  TGI: > 100 µM
[40]
  TGI: > 100 µM
[56]
  TGI: > 100 µM
